Patent US20180314077A1, “DRUG SUSTAINED-RELEASING MEDICAL CONTACT LENS” (NOF CORPORATION, priority 2015, published 2018)
Structures can show the parent of a compound that is named as a salt. Where two headings read alike, the source gives them in different places.

From the text: The solubility of the drug (Q) to be used in the drug sustained-releasing medical contact lens of the present invention in water may be calculated by using the following equation.

Compound | Solubility in water [%] | Solubility in water (water at 25° C., 0.01 g of drug / mass of water needed for dissolving x100) [%]
CC(C)c1ccc2oc3nc(N)c(C(=O)O)cc3c(=O)c2c1 [amlexanox] | – | 0.01
CCN[C@H]1CN(CCCOC)S(=O)(=O)c2sc(S(N)(=O)=O)cc21 [brinzolamide] | 0.055 | –
CCCC(=O)N1CCCN(c2nc(N)c3cc(OC)c(OC)cc3n2)CC1 [bunazosin hydrochloride] | 0.55 | –
C[C@@H]1C[C@H]2[C@@H]3CCC4=CC(=O)C=C[C@]4(C)[C@@]3(F)[C@@H](O)C[C@]2(C)[C@@]1(O)C(=O)COC(=O)c1cccc(S(=O)(=O)[O-])c1.[Na+] [dexamethasone sodium sulfobenzoate] | 0.55 | –
O=C(O)Cc1ccccc1Nc1c(Cl)cccc1Cl [diclofenac sodium] | 0.24 | –
CC(=O)[C@@]1(O)CC[C@H]2[C@@H]3C[C@H](C)C4=CC(=O)C=C[C@]4(C)[C@@]3(F)[C@@H](O)C[C@@]21C [fluorometholone] | 0.003 | –
CC(=O)OCC(=O)[C@@]1(O)CC[C@H]2[C@@H]3CCC4=CC(=O)CC[C@]4(C)[C@H]3[C@@H](O)C[C@@]21C [hydrocortisone acetate] | 0.0014 | –
CCCCCCCC(=O)CC[C@@H]1[C@@H](C/C=C\CCCC(=O)OC(C)C)[C@@H](O)C[C@H]1O [isopropyl unoprostone] | 0.01 | –
CN1CCC(=C2c3ccccc3CC(=O)c3sccc32)CC1 [ketotifen fumarate] | 0.55 | –
CC(C)OC(=O)CCC/C=C\C[C@@H]1[C@@H](CC[C@@H](O)CCc2ccccc2)[C@H](O)C[C@@H]1O [latanoprost] | 0.01 | –
C[C@@H]1CN([C@H]2CC[C@](C#N)(c3ccc(F)cc3)CC2)CC[C@]1(C(=O)O)c1ccccc1 [levocabastine hydrochloride] | 0.01 | –
CCn1cc(C(=O)O)c(=O)c2cc(F)c(N3CCNCC3)cc21 [norfloxacin] | 0.01 | –
O=C(O)c1cc(O)c2c3nc4ccccc4oc-3cc(=O)c2n1 [pirenoxine] | 0.01 | –
CC(C)OC(=O)CCC/C=C\C[C@@H]1[C@@H](/C=C/C(F)(F)COc2ccccc2)[C@H](O)C[C@@H]1O [tafluprost] | 0.01 | –
NC1CCN(c2nc3c(cc2F)c(=O)c(C(=O)O)cn3-c2ccc(F)cc2F)C1 (centres unmarked) [tosufloxacin tosilate hydrate] | 0.01 | –
sodium azulene sulfonate hydrate | 2.15 | –
sodium hyaluronate | 2.15 | –

More lines, main results first:

Solubility in water [%] | Compound | Solubility in water (water at 25° C., 0.01 g of drug / mass of water needed for dissolving x100) [%]
0.55 | O=C(O)C(=O)Nc1cccc(-c2nnn[nH]2)c1 [acitazanolast hydrate] | –
0.16 | Nc1nc2c(ncn2COCCO)c(=O)[nH]1 [acyclovir] | –
0.55 | CCNC(=O)CCC/C=C\C[C@@H]1[C@@H](/C=C/[C@@H](O)CCc2ccccc2)[C@H](O)C[C@@H]1O [bimatoprost] | –
0.055 | CO/N=C(\C(=O)N[C@@H]1C(=O)N2C(C(=O)O)=C(CSc3nnnn3C)CS[C@H]12)c1csc(N)n1 [cefmenoxime] | –
0.01 | C[C@@H]1C[C@H]2[C@@H]3CCC4=CC(=O)C=C[C@]4(C)[C@@]3(F)[C@@H](O)C[C@]2(C)[C@@]1(O)C(=O)CO [dexamethasone] | –
0.55 | COc1c(N2CCNC(C)C2)c(F)cc2c(=O)c(C(=O)O)cn(C3CC3)c12 (centres unmarked) [gatifloxacin] | –
0.00009 | COc1ccc2c(c1)c(CC(=O)O)c(C)n2C(=O)c1ccc(Cl)cc1 [indomethacin] | –
0.55 | CCn1cc(C(=O)O)c(=O)c2cc(F)c(N3CCNC(C)C3)c(F)c21 (centres unmarked) [lomefloxacin hydrochloride] | –
0.01 | NC(=O)Cc1cccc(C(=O)c2ccccc2)c1N [nepafenac] | –
2.15 | CN(C)CC/C=C1/c2ccccc2COc2ccc(CC(=O)O)cc21 [olopatadine hydrochloride] | –
0.01 | CC(C(=O)O)c1ccc2c(c1)Cc1cccnc1O2 (centres unmarked) [pranoprofen] | –
0.01 | O=C(NC(Cc1cc(=O)[nH]c2ccccc12)C(=O)O)c1ccc(Cl)cc1 (centres unmarked) [rebamipide] | –
0.01 | COc1ccc(/C=C/C(=O)Nc2ccccc2C(=O)O)cc1OC [tranilast] | –
0.01 | CC(C)OC(=O)CCC/C=C\C[C@@H]1[C@@H](/C=C/[C@@H](O)COc2cccc(C(F)(F)F)c2)[C@H](O)C[C@@H]1O [travoprost] | –
2.15 | cyanocobalamin | –
